From publication PMC11259170, “Small-molecule probe for IBD risk variant GPR65 I231L alters cytokine signaling networks through positive allosteric modulation” (Science Advances, 2024)
Where two headings read alike, the source gives them in different places.

Assays:
[1] = target: T1, hGPR65 (Homo sapiens, UniProt Q8IYL9); assay: cAMP detection in HeLa expression cell line, hGPR65; type: cell-based; conditions: for EC50: read-out: hGPR EC50; for Emax: HeLa, relative to 100uM forskolin (100%) and DMSO (0%), read-out: hGPR Max Activity %
T1 construct: expressed in transfected cells; host or cells: HeLa (ATCC CCL-2), lentiviral transduction, pLX317
Experimental: (§1) HeLa stable expression cell lines were produced by lentiviral transduction. Briefly, lentiviral plasmids for each GPCR with a C-terminal V5 Tag ([…]) were made in a pLX317 backbone using competent Escherichia coli (New England Biolabs, C3050H). Lenti-X 293 T (Takara, 632810) cells were transfected with the lentiviral plasmids to produce virus. Low-passage HeLa cells (American Type Culture Collection, CCL-2) were then transduced with lentivirus. After 48 hours, HeLa cells were cultured under selection with puromycin (3 μg/ml) and allowed to recover and expand before storing stocks in liquid nitrogen.
(§2) cAMP was measured in cells using the Lance Ultra cAMP Kit. HeLa cells were cultured under puromycin (3 μg/ml) selection. One day before the experiment, cells were seeded in T75 flasks and allowed to adhere overnight. On the day of the experiment, cells were washed twice with Dulbecco’s PBS and lifted using prewarmed 1× versene solution (Gibco, 15040066). Cells were counted in HBSS (Gibco, 14025092) and then resuspended in stimulation buffer prepared according to the manufacturer’s instructions and adjusted to pH 7.2 using 1 M sodium hydroxide. Cells were added to the plate at a density of 1500 cells per well in white opaque 384-well assay ready microplates containing 100 nl of 10 mM compound in DMSO. Cells were stimulated for 30 min at RT, then lysed and incubated with detection reagents for 1 hour in the dark at RT. Plates were read on BMG Labtech PHERAstar FSX (excitation, 337 nm; emission, 620 and 665 nm). Data analysis was performed using GraphPad Prism.

[2] = target: T2, mGPR65 (Mus musculus, UniProt Q61038); assay: cAMP detection in HeLa expression cell line, mGPR65; type: cell-based; conditions: for EC50: read-out: mGPR EC50; for Emax: HeLa, read-out: mGPR Max Activity %; for Emax / mGPR Max Activity: relative to 100uM forskolin (100%) and DMSO (0%)
T2 construct: expressed in transfected cells; host or cells: HeLa (ATCC CCL-2), lentiviral transduction, pLX317
Experimental: as §1, §2

[3] = 1st hGPR column pair, NA = no activity
[4] = 1st mGPR column pair, NA = no activity
[5] = 2nd mGPR column pair, NA = no activity
[6] = 2nd hGPR column pair, NA = no activity
[7] = 3rd mGPR column pair, NA = no activity

T2 sequence (Q61038 whole entry): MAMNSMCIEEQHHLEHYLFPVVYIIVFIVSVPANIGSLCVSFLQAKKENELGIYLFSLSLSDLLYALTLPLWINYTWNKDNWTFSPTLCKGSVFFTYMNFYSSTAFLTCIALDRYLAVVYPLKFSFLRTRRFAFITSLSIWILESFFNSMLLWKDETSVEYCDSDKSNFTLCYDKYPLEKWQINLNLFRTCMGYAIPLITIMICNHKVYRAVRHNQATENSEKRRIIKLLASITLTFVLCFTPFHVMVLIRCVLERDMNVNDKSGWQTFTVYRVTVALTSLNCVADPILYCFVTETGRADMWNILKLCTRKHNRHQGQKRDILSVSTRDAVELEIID
T1 sequence (Q8IYL9 whole entry): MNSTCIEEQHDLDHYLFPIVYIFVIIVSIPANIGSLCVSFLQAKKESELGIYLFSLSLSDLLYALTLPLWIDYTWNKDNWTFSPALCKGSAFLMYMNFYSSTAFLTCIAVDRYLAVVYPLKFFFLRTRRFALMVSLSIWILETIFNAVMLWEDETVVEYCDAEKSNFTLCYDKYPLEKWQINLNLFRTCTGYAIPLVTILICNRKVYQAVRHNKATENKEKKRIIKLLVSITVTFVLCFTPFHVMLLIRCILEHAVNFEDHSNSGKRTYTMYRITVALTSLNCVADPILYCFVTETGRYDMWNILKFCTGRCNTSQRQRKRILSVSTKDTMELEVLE

| Compound | EC50 [1, 3] [nM] | Emax [1, 3] [%] | EC50 [2, 4] [nM] | Emax ([2]; NA = no activity) [%] | EC50 [2, 5] [nM] | Emax [2, 5] [%] | other results |
| --- | --- | --- | --- | --- | --- | --- | --- |
| COCc1ccc(-c2cc(O)n3nccc3n2)cc1 [BRD2453] | 18600 | 11.7 | – | – | – | – | – |
| Cc1ccc(NC(=O)c2cnn3c(O)cc(CCc4c(C)n[nH]c4C)nc23)cc1 [BRD5908] | – | – | 33000 | 22.1 | – | – | – |
| COc1cccc(Cc2cc(O)n3ncc(C(=O)Nc4ccccc4)c3n2)c1 [BRD7897] | – | – | 6480 | ~22.7 | – | – | – |
| Cc1ccc(NC(=O)c2cnn3c(O)cc(-c4ccc(Oc5ccccc5)cc4)nc23)cc1 [BRD3067] | – | – | – | – | – | – | Emax ([1]; first pair): 36.3%; EC50 ([1]; SAR cAMP assay, first EC50/Max pair of hGPR columns): 11100 nM |
| COCc1ccc(-c2cc(O)n3ncc(C(=O)Nc4ccc(F)cc4)c3n2)cc1 [BRD3674] | 27900 | 43.3 | – | – | 4120 | 7.69 | – |
| Cc1ccc(NC(=O)c2cnn3c(O)cc(-c4ccc5ccccc5c4)nc23)cc1 [BRD7102] | 272 | 79.7 | 191 | 40.7 | 269 | 35.2 | EC50 [1, 6]: 151 nM; Emax [1, 6]: 72.5%; potency and total cAMP production relative to BRD2813 ([1]; receptor not given): improved potency but had little effect on total cAMP production |
| Cc1ccc(NC(=O)c2cnn3c(O)cc(-c4cnc(N5CCOCC5)c(Cl)c4)nc23)cc1 [BRD5065] | 2390 | 49.7 | 513 | 56.5 | 1160 | 51.8 | EC50 [1, 6]: 1870 nM; Emax [1, 6]: 39.5% |
| Cc1ccc(NC(=O)c2cnn3c(O)cc(-c4ccc(N5CCN(C)CC5)c(Cl)c4)nc23)cc1 [BRD5068] | 1760 | 53.1 | 613 | 71 | 1040 | 66.5 | EC50 [1, 6]: 2820 nM; Emax [1, 6]: 36.9% |
| CCN1CC(c2cc(O)n3ncc(C(=O)Nc4ccc(Cl)cc4)c3n2)CC1=O (stereo not drawn) [BRD8856] | – | – | 662 | 10.9 | – | – | – |
| Cc1ccc(NC(=O)c2cnn3c(O)cc(-c4ccc(C(=O)NC(C)C)cc4)nc23)cc1 [BRD5085] | 2750 | 46.6 | 441 | 98.4 | 4170 | 32.7 | EC50 [1, 6]: 2820 nM; Emax [1, 6]: 31.2% |
| Cc1ccc(NC(=O)c2cnn3c(O)cc(CCc4c(C)noc4C)nc23)cc1 [BRD8568] | 3060 | 3.77 | – | – | – | – | – |
| CCOC(=O)c1cnn2c(O)cc(C)nc12 [BRD9804] | 77600 | 5.41 | – | – | – | – | – |
| COCc1ccc(-c2cc(OC)n3ncc(C(=O)Nc4ccc(C)cc4)c3n2)cc1 [BRD2344] | – | – | 737 | 4.13 | – | – | – |
| COCc1ccc(-c2cc(O)n3ncc(C(=O)N4CCS(=O)(=O)CC4)c3n2)cc1 [BRD3128] | 11000 | 3.44 | – | – | – | – | – |
| Cc1ccc(NC(=O)c2cnn3c(O)cc(C(C)Cn4nccc4C)nc23)cc1 (stereo not drawn) [BRD4822] | – | – | 2820 | 42 | 4330 | 25.4 | EC50 [2, 7]: 1190 nM; mGPR Max Activity ([2]; NA = no activity): 35.73% |
| Cc1ccc(NC(=O)c2cnn3c(O)cc(Cc4c[nH]c5ccccc45)nc23)cc1 [BRD2917] | – | – | 18900 | 7.25 | – | – | – |
| Cc1[nH]c2ccccc2c1Cc1cc(O)n2ncc(C(=O)Nc3ccccc3)c2n1 [BRD5828] | – | – | 649 | 25.8 | 785 | 18.4 | – |
| Cc1ccc(NC(=O)c2cnn3c(O)cc(-c4ccc(-c5ccc(C(C)C)cc5)cc4)nc23)cc1 [BRD7984] | – | – | – | – | – | – | Emax ([2]; first pair): 12.4%; EC50 ([2]; SAR cAMP assay, first EC50/Max pair): 110 nM |
| COCc1ccc(-c2cc(O)n3ncc(C(=O)NCc4ccc(C)cc4)c3n2)cc1 [BRD4305] | – | – | 2310 | 67.8 | 1440 | 36.9 | EC50 [2, 7]: 1070 nM; mGPR Max Activity ([2]; NA = no activity): 60.85% |
| Cc1ccc(NC(=O)c2cnn3c(O)cc(-c4ccc(N5CCCN(C)CC5)cc4)nc23)cc1 [BRD8425] | – | – | – | – | – | – | Emax ([2]; first pair): 65.4% |
| COc1ccc(-c2ccn3ncc(C(=O)Nc4ccc(C)cc4)c3n2)cc1 [BRD6737] | 84.4 | 7.95 | – | – | – | – | – |
